# Measurements taken from patent US11155560B2, “Substituted pyrazolo[1,5-a]pyrimidines for modulating CDK9 activity” (Kronos Bio, Inc., priority 2018, dated 2021).
# Target: CDK9/cyclin T1 (Homo sapiens, UniProt P50750)
# Test: CDK9/cyclin T1 inhibition, radiometric assay
# Assay type: biochemical
# Details: radiometric assay, reaction time 60 minutes, 10 μM ATP, 10-dose IC50; compounds 1-34 and control Staurosporine; read-out: CDK9/cyclin T1 Potency Grade
# Experimental: Exemplary compounds of the invention (1-34) were tested for inhibition of CDK9/cyclin T1. […] Reactions were carried out at 10 μM ATP. Data was normalized to positive and negative controls and curve fits were executed with GraphPad software and were performed where the enzyme activities at the highest concentration of compounds were less than 65%.
# Sequence of CDK9/cyclin T1 (P50750 whole entry): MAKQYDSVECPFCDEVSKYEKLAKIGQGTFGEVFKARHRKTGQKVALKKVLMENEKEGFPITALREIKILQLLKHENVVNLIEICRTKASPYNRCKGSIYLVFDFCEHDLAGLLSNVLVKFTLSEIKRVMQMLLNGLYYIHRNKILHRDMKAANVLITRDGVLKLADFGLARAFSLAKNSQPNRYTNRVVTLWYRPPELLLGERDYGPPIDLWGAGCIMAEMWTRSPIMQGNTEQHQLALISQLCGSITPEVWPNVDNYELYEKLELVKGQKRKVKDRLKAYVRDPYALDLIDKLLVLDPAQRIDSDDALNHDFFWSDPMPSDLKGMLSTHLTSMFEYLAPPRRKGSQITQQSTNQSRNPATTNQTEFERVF
# Sequence of CDK9/cyclin T1 (O60563 whole entry partner): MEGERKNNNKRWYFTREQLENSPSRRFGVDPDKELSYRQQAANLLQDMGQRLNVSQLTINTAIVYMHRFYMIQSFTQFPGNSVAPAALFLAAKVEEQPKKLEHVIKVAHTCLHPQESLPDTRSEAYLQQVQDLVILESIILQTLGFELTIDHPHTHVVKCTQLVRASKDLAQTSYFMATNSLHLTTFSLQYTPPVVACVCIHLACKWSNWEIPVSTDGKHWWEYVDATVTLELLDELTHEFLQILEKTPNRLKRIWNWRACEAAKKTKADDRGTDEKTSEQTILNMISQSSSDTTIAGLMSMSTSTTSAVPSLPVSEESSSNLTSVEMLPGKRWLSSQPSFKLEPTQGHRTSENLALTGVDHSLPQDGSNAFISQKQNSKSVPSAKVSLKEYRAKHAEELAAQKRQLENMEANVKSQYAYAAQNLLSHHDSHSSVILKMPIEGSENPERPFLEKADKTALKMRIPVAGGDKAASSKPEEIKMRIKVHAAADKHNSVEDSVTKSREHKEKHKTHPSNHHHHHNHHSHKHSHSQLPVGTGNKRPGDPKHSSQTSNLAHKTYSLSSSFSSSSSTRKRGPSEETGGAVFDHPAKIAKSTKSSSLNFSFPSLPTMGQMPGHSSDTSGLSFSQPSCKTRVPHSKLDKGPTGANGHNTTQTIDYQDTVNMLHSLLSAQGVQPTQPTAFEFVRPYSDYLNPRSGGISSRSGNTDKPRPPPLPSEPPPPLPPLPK
row,SMILES,IC50 [nM]
1,"N[C@@H]1CC[C@@H](Nc2cc(C3CC3)nc3ccnn23)C1 [Compound 32, [(1R,3R)-3-[(5-cycloproylpyrazolo[1,5-a]pyrimidin-7-yl)amino]cyclopentyl]ammonium; 2,2,2-trifluoroacetate]",1 to 500

# Same assay, conditions: read-out: CDK9/cyclin T1 Potency Grade
row,SMILES,IC50 [nM]
1,"N[C@@H]1CC[C@H](Nc2cc(C3CCCC3)nc3ccnn23)C1 [Compound 23, (1R,3S)—N3-(5-cyclopentylpyrazolo[1,5-a]pyrimidin-7-yl)cyclopentane-1,3-diamine]",1 to 500
2,"Cc1cc(N[C@H]2CC[C@H](N)C2)n2nccc2n1 [Compound 24, (1S,3S)—N3-(5-methylpyrazolo[1,5-a]pyrimidin-7-yl)cyclopentane-1,3-diamine]",501 to 1000
3,"CCc1cc(N[C@@H]2CC[C@@H](N)C2)n2nccc2n1 [Compound 25, (1R,3R)—N3-(5-ethylpyrazolo[1,5-a]pyrimidin-7-yl)cyclopentane-1,3-diamine]",501 to 1000
4,"CCc1cc(N[C@H]2CC[C@H](N)C2)n2nccc2n1 [Compound 28, (1S,3S)-N3-(5-ethylpyrazolo[1,5-a]pyrimidin-7-yl)cyclopentane-1,3-diamine]",1 to 500
5,"CC(C)c1cc(NC2CCCCC2)n2nccc2n1 [Compound 29, N-cyclohexyl-5-isopropyl-pyrazolo[1,5-a]pyrimidin-7-amine]",1 to 500
6,"CC(C)c1cc(N[C@@H]2CCOC2)n2nccc2n1 [Compound 30, 5-isopropyl-N-[(3R)-tetrahydrofuran-3-yl]pyrazolo[1,5-a]pyrimidin-7-amine]",> 1000
7,"CC(=O)Nc1cc(N[C@@H]2CC[C@@H](N)C2)n2ncc(Cl)c2n1 [Compound 33, [(1R,3R)-3-[(5-acetamido-3-chloro-pyrazolo[1,5-a]pyrimidin-7-yl)amino]cyclopentyl]ammonium; 2,2,2-trifluoroacetate]",1 to 500
8,"CC(=O)Nc1cc(N[C@@H]2CC[C@@H](N)C2)n2nccc2n1 [Compound 34, [(1R,3R)-3-[(5-acetamidopyrazolo[1,5-a]pyrimidin-7-yl)amino]cyclopentyl]ammonium; 2,2,2-trifluoroacetate]",> 1000
